Experimental data from ChEMBL document CHEMBL1201862, “PubChem BioAssay data set” (2004).
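Assay format: 96-well plates, 48-hour exposure. GI50: concentration for 50% inhibition of growth.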 Calls of active or inactive are those of the source. Rule as the data show it: active = GI50 up to about 1.1 µM and inactive = higher.

Experiments:
Assay in all cases: inhibition of tumour cell growth, NCI panel, 48 h
[1] = tested on: TK-10
[2] = tested on: UACC-62
[3] = tested on: HL-60
[4] = tested on: HOP-62
[5] = tested on: SK-OV-3
[6] = tested on: NCI-H460
[7] = tested on: RXF 393
[8] = tested on: LOX IMVI
[9] = tested on: NCI-H226
[10] = tested on: HOP-92
[11] = tested on: SF-268
[12] = tested on: SN12C
[13] = tested on: NCI-H23
[14] = tested on: HOP-18
[15] = tested on: Malme-3M
[16] = tested on: T47D
[17] = tested on: MCF7
[18] = tested on: Hs-578T
[19] = tested on: PC-3
[20] = tested on: MDA-MB-231

Measured: GI50

COC(=O)C12C3C4C1C1C2C3C41C(=O)OC(C)(C)C (centres undefined)
inactive: [1] > 100 µM | [2] > 100 µM | [3] > 53.8 µM | [4] > 100 µM | [5] > 100 µM | [6] > 63.5 µM | [7] > 100 µM | [8] > 42.9 µM | [9] > 100 µM | [10] > 100 µM | [11] > 100 µM | [12] > 100 µM | [13] > 100 µM | [14] > 100 µM | [15] > 100 µM

O/N=C/c1cc2c(cc1Br)OCO2
inactive: [1] > 100 µM | [2] > 100 µM | [3] > 100 µM | [4] > 100 µM | [5] > 100 µM | [6] > 100 µM | [8] > 100 µM | [9] > 100 µM | [12] > 100 µM | [13] > 100 µM | [14] > 100 µM | [15] > 100 µM

Cc1nc2ccccc2c(=O)n1NC(=S)Nc1cccc(Cl)c1
inactive: [1] > 100 µM | [2] > 100 µM | [3] > 100 µM | [4] > 100 µM | [5] > 100 µM | [6] > 100 µM | [7] > 100 µM | [8] 65.5 µM | [9] > 100 µM | [10] > 100 µM | [11] > 100 µM | [12] > 100 µM | [13] > 100 µM | [14] > 100 µM | [15] > 100 µM

Nc1ccc(Sc2c3ccccc3nc3ccccc23)cc1
inactive: [1] 13.4 µM | [2] 15.2 µM | [3] 2.96 µM | [4] 29.7 µM | [5] 22.3 µM | [6] 20.4 µM | [16] 2.06 µM | [7] 18.7 µM | [8] 5.62 µM | [9] 18.7 µM | [10] 10.1 µM | [17] 12.4 µM | [11] 18.5 µM | [12] 18.5 µM | [13] 17.7 µM | [14] 22.3 µM | [18] 25.6 µM | [19] 13.1 µM | [15] 19.7 µM | [20] 14.7 µM

COC(=O)C(C(=O)C(=O)Nc1cccc(O)c1)c1nc2ccc(Cl)cc2nc1O (centres undefined)
inactive: [1] > 100 µM | [2] > 100 µM | [3] > 100 µM | [4] > 100 µM | [5] > 100 µM | [6] > 100 µM | [7] 74.3 µM | [8] > 100 µM | [9] 71.6 µM | [10] 59 µM | [11] > 100 µM | [12] > 100 µM | [13] > 100 µM | [14] 98.9 µM | [15] > 100 µM

O=C(Nc1ccc(S(=O)(=O)N[C@@H](C(=O)O)c2ccccc2)cc1)c1ccc(F)cc1
inactive: [1] > 100 µM | [2] > 100 µM | [5] > 100 µM | [6] > 100 µM | [7] > 100 µM | [8] > 100 µM | [10] > 100 µM | [11] > 100 µM | [12] > 100 µM | [13] > 100 µM | [14] > 100 µM | [15] > 100 µM

O=C(NC(=O)c1c(F)cccc1F)Nc1cccc(Oc2ncc(Cl)cn2)c1
inactive: [1] > 100 µM | [2] 36.6 µM | [3] 3.51 µM | [4] 29.6 µM | [5] 19.3 µM | [6] 4.51 µM | [16] > 35.2 µM | [7] 38.5 µM | [8] 29.3 µM | [9] 62.7 µM | [10] 16.6 µM | [17] > 100 µM | [11] 36.5 µM | [12] 45.1 µM | [13] > 100 µM | [14] > 100 µM | [18] 35.2 µM | [19] > 100 µM | [15] > 68.4 µM | [20] > 71.6 µM

O=C(O)/C(Cl)=C(/Cl)C(=O)Nc1cccc(Cl)c1
inactive: [1] 18.1 µM | [2] 16.8 µM | [3] 8.91 µM | [4] > 59.4 µM | [5] 15.7 µM | [6] > 87.9 µM | [16] 22 µM | [7] 16.4 µM | [8] 13.8 µM | [9] 24.8 µM | [10] 14.6 µM | [17] 24.8 µM | [11] 22.4 µM | [12] 20 µM | [13] 15.9 µM | [14] 20.4 µM | [18] 24.8 µM | [19] 18.5 µM | [15] 16.9 µM | [20] 14.6 µM

C[C@]12CCC(=O)C=C1CC[C@@H]1C2CC[C@@]2(C)C1CC[C@@H]2OC(=O)C12OC1CCC2=O (some centres undefined)
inactive: [1] 20 µM | [2] 18.3 µM | [3] 6.9 µM | [4] 30.7 µM | [5] 41.7 µM | [6] 17.9 µM | [7] 5.16 µM | [8] 16 µM | [9] 19.1 µM | [10] 19.8 µM | [11] 20 µM | [12] 23.2 µM | [13] 18.8 µM | [14] 17.4 µM | [15] 19.1 µM

O=S(=O)(O)C1=C2Sc3ccccc3N=C2c2ccccc2C1
inactive: [1] 18.4 µM | [2] 13.2 µM | [3] 3.76 µM | [4] 20.1 µM | [5] 29.2 µM | [6] 19.5 µM | [7] 19.5 µM | [8] 12.4 µM | [9] 20.3 µM | [10] 10.3 µM | [11] 14.1 µM | [12] 13.8 µM | [13] 16.4 µM | [14] 12.4 µM | [15] 15.8 µM

CC1=N/C(=C\c2c(O)ccc3ccccc23)C(=O)O1
inactive: [2] > 100 µM | [3] > 100 µM | [4] > 100 µM | [6] > 100 µM | [7] > 100 µM | [10] > 100 µM | [11] > 100 µM | [12] > 100 µM | [13] > 100 µM | [14] > 100 µM | [15] > 100 µM

CC(c1ccccc1)N1CC(C)(c2ccccc2)N(O)C(c2ccccc2)C1C (centres undefined)
inactive: [1] 17.1 µM | [3] 3.52 µM | [4] 15.5 µM | [5] 22.8 µM | [6] 7.29 µM | [7] 4.41 µM | [8] 12.2 µM | [10] 2.21 µM | [11] 4.15 µM | [13] 8.04 µM | [14] 17.7 µM | [15] 18.8 µM

CN1CCCC2[C@@H]3CCC4=C(O)C(=O)CC[C@]4(C)C3CC[C@@]21C (some centres undefined)
inactive: [1] > 100 µM | [2] > 100 µM | [3] > 100 µM | [4] > 100 µM | [5] > 100 µM | [6] > 100 µM | [7] > 100 µM | [8] > 100 µM | [9] > 100 µM | [10] > 100 µM | [11] > 100 µM | [12] > 100 µM | [13] > 100 µM | [14] > 100 µM | [15] > 100 µM

COc1ccc(C(=O)C(c2ccc(OC)cc2)C2OC(=O)C(Cl)=C2Cl)cc1 (centres undefined)
inactive: [1] > 100 µM | [2] > 100 µM | [3] > 100 µM | [4] > 100 µM | [5] > 100 µM | [6] > 100 µM | [7] > 100 µM | [8] > 100 µM | [9] > 100 µM | [10] > 100 µM | [11] > 100 µM | [12] > 100 µM | [13] > 100 µM | [14] > 100 µM | [15] > 100 µM

O=C(C=P(c1ccccc1)(c1ccccc1)c1ccccc1)c1ccc(-c2cccs2)cc1
inactive: [1] 3.08 µM | [2] 1.64 µM | [3] 2.11 µM | [4] 6.64 µM | [5] 5.66 µM | [6] 3.97 µM | [16] 2.33 µM | [7] 3.11 µM | [8] 4.57 µM | [9] 2.86 µM | [10] 3.48 µM | [17] 3.41 µM | [11] 12.9 µM | [12] 4.98 µM | [13] 8.91 µM | [18] 18.5 µM | [19] 4.12 µM | [15] 4.46 µM | [20] 9.79 µM

Cc1ccccc1C(C#N)/C(=N/NC(N)=S)C(=O)Nc1c(C)cccc1C (centres undefined)
inactive: [1] > 100 µM | [2] 33.4 µM | [3] > 100 µM | [4] > 100 µM | [6] > 100 µM | [7] > 100 µM | [8] > 100 µM | [9] > 100 µM | [10] > 100 µM | [11] > 100 µM | [12] > 100 µM | [13] > 100 µM | [14] > 100 µM | [15] 83.8 µM

CC(=O)NC(CS)C(=O)O (centres undefined)
inactive: [1] 10000 µM | [2] 27300 µM | [3] 34200 µM | [4] 12800 µM | [5] 44200 µM | [6] 18400 µM | [16] 26900 µM | [7] 21900 µM | [8] > 100 µM | [9] 10500 µM | [10] 12500 µM | [17] 25200 µM | [11] 20900 µM | [12] 26300 µM | [13] 20200 µM | [18] 18700 µM | [19] 33200 µM | [15] 8220 µM | [20] 11300 µM
